The values that follow come from publication PMC12799421, “Inhibition of constitutive activity of the atypical chemokine receptor 3 by the small-molecule inverse agonist VUF16840” (Molecular Pharmacology, 2025).

The target of one test is T1, hCXCR4-NLuc (Homo sapiens, UniProt P61073).
T1 construct: expressed in transfected cells; host or cells: HEK293T
In words: Bystander BRET detection of CXCR4 membrane localization. The class given is cell-based. As to conditions: 1 μM VUF16840. How it is done:
Ligand-induced receptor mobilization to the plasma membrane was monitored by bystander NanoBRET according to an established method.[36] For this assay, 5 × 10^6 HEK293T cells were seeded in 10-cm dishes and cotransfected with plasmids encoding ACKR3 C-terminally tagged with NLuc and mNeonGreen N-terminally tagged with the plasma membrane targeting sequence corresponding to the first 11 residues ([…]) of the human Lyn-kinase.[37] Twenty-four hours after transfection, cells were distributed into black 96-well plates (1 × 10^5 cells per well) and treated with chemokines (100 nM). After 45-minute incubation at 37 °C, coelenterazine H (10 μM) was added and donor emission (460 nm) and acceptor emission (535 nm) were immediately measured on a GloMax Discover (Promega) plate reader.
The resulting proximity between hACKR3-NLuc and was determined as bystander BRET. […] (B) The same assay was performed as in A for hCXCR4-NLuc. […] Expression of hACKR3-NLuc at the cell surface was determined by the measurement of bystander BRET. Depicted data represents the mean ± SD of 3 experiments with triplicate measurements per experiment.
(In general: In BRET a luciferase serves as donor, and the signal depends on an acceptor being close.)

A further test deals with D3-ACKR3+ cells. Nature of the test: CXCL12 uptake in ACKR3-overexpressing hCMEC/D3 cells. It counts as cell-based, human. An excerpt:
Human CMEC (D3) cells (CVCL_U985) stably overexpressing ACKR3 and empty vector control were generated by retroviral transductions. The lentiviral expression vector encoding the human ACKR3 was created by cloning the ACKR3 gene (NM_020311.3 from GenScript) in the restriction sites Nhe1/Sma1 of the pLV-LifeAct (a kind gift of Dr Niels Heemskerk). Lentiviral particles were packaged in HEK293T cells, cultured in Dulbecco’s modified Eagle’s medium containing 10% fetal calf serum, 1% penicillin/streptomycin (ThermoFisher Scientific) at 37 °C in a 5% CO2 incubator. Lentiviral expression and packaging vectors were introduced using calcium phosphate transfection. […] Supernatant was taken off, cells were washed 1× with medium and CXCL12-A647 signal in cells was measured using a BioTek Cytation microplate reader (Agilent). […]
The sigmoidal concentration-dependent displacement of binding of the probes [^3H]VUF15485 and CXCL12-A647 by unlabeled ligands were analyzed using GraphPad Prism 8, by fitting a one-site binding model to the data, to determine the pIC50. Mean pIC50 values were determined by averaging fitted values from individual experiments. […] Mean pEC50 values and pIC50 values were determined by averaging fitted values from individual experiments. […]

T1 sequence (P61073 whole entry): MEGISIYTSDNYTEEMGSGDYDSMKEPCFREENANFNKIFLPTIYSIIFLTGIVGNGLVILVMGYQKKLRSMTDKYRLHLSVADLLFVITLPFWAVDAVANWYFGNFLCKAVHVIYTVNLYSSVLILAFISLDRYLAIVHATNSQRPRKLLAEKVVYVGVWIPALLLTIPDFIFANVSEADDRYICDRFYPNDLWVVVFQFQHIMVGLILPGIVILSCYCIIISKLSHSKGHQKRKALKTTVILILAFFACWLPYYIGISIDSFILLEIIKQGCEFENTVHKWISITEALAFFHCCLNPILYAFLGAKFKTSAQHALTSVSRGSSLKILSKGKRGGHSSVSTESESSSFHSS

Turning to `COc1ccccc1CCNC(=O)C1CN(C2CCCCC2)CCC1NC(=O)c1cc(-c2ccc(F)cc2F)on1` (stereo not drawn) [VUF16840], the “effect on CXCR4 surface expression (bystander BRET)” value at hCXCR4-NLuc is listed as “not affected”. Also, in the test with D3-ACKR3+ cells (3 nM CXCL12-AF647 60 minutes, 1, 10 or 100 nM VUF16840), the “CXCL12-AF647 uptake (mean fluorescent intensity)” value is “concentration-dependent inhibition”. The “uptake of CXCL12-AF647 (confocal microscopy)” value with D3-ACKR3+ cells (3 nM CXCL12-AF647, 100 nM VUF16840) is given as “abolished”.
